Data from patent US11479601B2, “Antibodies specific to Sonic Hedgehog and method of use thereof” (The Regents of the University of California, priority 2016, dated 2022).
Entries after “also recorded” stand apart in the source; their conditions may differ.

Experiments:
Shh+ cells (A549) = test: Shh rate by flow cytometry in drug-treated A549 cells; format: cell-based, human
Protocol: FACS (1:40). The secondary antibody was a donkey anti-mouse FITC-linked antibody (ab97029, 1:100, Abcam). For cell analysis after treatment assays (chemotherapy or GDC0449), a dead cell marker (SytoxRed, Invitrogen) was also used. For human fresh samples, an anti-CD45 APC-linked antibody (ab28106, 1:100, Abcam), and a dead cells marker (SytoxRed, Invitrogen) were added. For staining of stable transfected cell lines, mouse anti-HA antibody (Abcam, 1:100) and rabbit anti-FLAG antibody (Cell Signaling; 1:400) were used. Corresponding secondary antibodies were donkey anti-mouse AlexaFluor647 (Invitrogen, 1:1000) and donkey anti-rabbit AlexFluor594 (Invitrogen, 1:1000) antibodies. Flow cytometry analyses were performed on AccuriC6 flow cytometer (BD Biosciences), and FACS on FACSAria II (BD Biosciences). Flow analyses were based at least on 200,000 cells, and each test was made at least in triplicate. For all experiments, a negative control with cells processed without primary antibody was used. Sorted cells (Shh+ and Shh− cells) were collected on fresh media, and seeded on culture plates or freezed at −80° C. according to further analyses. Flow cytometry analysis was performed without membrane permeabilization prior to labeling the cells, unless otherwise indicated (e.g., FIG. 1D). Cisplatin was purchased from Sigma, and freshly reconstituted in PBS (2 g/1). Docetaxel was purchased from Tocris Bioscience, reconstituted in DMSO (5 g/1 stock dilution at −20° C.; further dilution in fresh culture medium) for in vitro assays, or reconstituted in ethanol/polysorbate 80 (1:1; 5 g/1 stock dilution at −20° C.; further dilution in PBS) for in vivo assays. GDC0449 was purchased from Selleck Chemicals, and reconstituted in DMSO (30 mM stock dilution). Shh human recombinant protein was obtained from EBioscience, and used at 1200 ng/ml. The mouse Shh-C-terminal antibody (mentioned above) was used for flow cytometry and FACS (1:40). The secondary antibody was a donkey anti-mouse FITC-linked antibody (ab97029, 1:100, Abcam). For cell analysis after treatment assays (chemotherapy or GDC0449), a marker for dead cells (SytoxRed®, Invitrogen) was also used. For fresh human samples, an anti-CD45 APC-linked antibody (ab28106, 1:100, Abcam) was added, and a marker for dead cells (SytoxRed®, Invitrogen). For staining of stable transfected cell lines, a mouse anti-HA antibody (Abcam, 1:100) and a rabbit anti-FLAG antibody (Cell Signaling; 1:400) were used. Corresponding secondary antibodies were donkey anti-mouse AlexaFluor647 (Invitrogen, 1:1 000) and donkey anti-rabbit AlexFluor594 (Invitrogen, 1:1 000). Flow cytometry analyses were performed on an AccuriC6 flow cytometer (BD Biosciences), and FACS on a FACSAria II (BD Biosciences). […]

Shh gene expression = Shh gene expression by qPCR in drug-treated A549 cells; format: cell-based, human; conditions: post-GDC0449 treatment, 20 μM and 40 μM
Protocol: RNA from unsorted cells was extracted with Qiagen Rneasy® Minikit (Quiagen), according to manufacturer instructions. RNA from sorted cells was extracted with Arcturus PicoPure RNA Isolation Kit (Life technologies). cDNA was then synthesized with iScript cDNA Synthesis Kit (Bio-Rad), according to manufacturer instructions. Commercial primers for Shh gene were obtained from Origen. Quantitative PCR was performed on Applied Biosystems' 7900HT Fast Real-Time PCR System, with triplicate for each gene analysis. Gene expression analysis was calculated with deltaCT method, with normalization with endogenous control (18s gene) (normalized gene expression level=2^−deltaCT(test gene)−deltaCT(18s)). For ddPCR, droplets creation, PCR and results analysis were performed according to manufacturer instructions (BioRad, QX100 ddPCR System, Quantasoft software). Results of ddPCR were expressed as FAM concentrations (copies/μl). RNA from unsorted cells was extracted with Qiagen's RNeasy Mini kit (Qiagen) according to the manufacturer's instructions. […] Quantitative RT-PCR (qRT-PCR) was performed on an Applied Biosystems 7900HT Fast Real-Time PCR System, in triplicate for each sample. Gene expression analysis was calculated with the delta-deltaCT method normalized to an endogenous control (18S gene). […] Results of ddPCR were expressed as FAM concentrations (copies/0).

A549 cells [1] = test: Proliferation (MTS) and migration/wound healing assay on A549 cells; format: cell-based, human; conditions: GDC0449
Protocol: Proliferation assay was performed by MTS assay (CellTiter 96, Promega), according to manufacturer instructions. […] Migration assay was performed by wound healing assay. Monolayers of cells were: cultured, scratched, treated with media containing proteins and/or drugs at different concentrations: Shh protein, DMSO, and GDC0449, and recorded 0 and 24, 72 and 96 hours after treatment. MTS proliferation assays were performed (CellTiterGlo 96, Promega) according to the manufacturer's instructions. […] Wound healing assays were performed to study cell migration. Monolayers of cells were cultured, scratched, treated with media containing proteins and/or drugs at different concentrations: Shh protein, DMSO, and GDC0449-recorded at 0, 24, 72 and 96 hours after treatment.

[2] = system: Shh+ cells in A549 xenografts; test: Shh rate in A549 xenografts of drug-treated nude mice; format: in vivo
Protocol: For xenograft formation, female nude mice, 5 to 10 weeks old, were injected subcutaneously (SC) with 10 million A549 cells in the dorsal area in a volume of […]. For SC inoculation of sorted cells, 1,500 cells of A549 Shh+ or Shh− cells were injected in a volume of […]. For intra-veinous injection of sorted cells, 1,000 cells of A549 Shh+ or Shh− cells were injected in the tail vein. For the in vivo treatment assay, after xenograft formation, animals were injected intravenously with cisplatin (10 mg/kg weekly), docetaxel (10 mg/kg twice a week) or vehicle, and intraperitoneally with GDC0449 (20 mg/kg daily) or vehicle. Each group consisted in 4-5 mice. Tumor size was determined twice a week, and tumor volumes were calculated using width (x) and length (y) (x^2y/2, where x<y). Tumors were collected after mice euthanasia, and cell dissociation was performed as for fresh human samples (cf supra). Flow cytometry and FACS were done as described supra. All animals were cared in accord with University of California San Francisco (UCSF) guidelines.
For xenograft formation, 5-10 week-old female nude mice, were injected subcutaneously (SC) with 10 million A549 cells in the dorsal area in a volume of 100 μl. […] Tumor size was determined twice a week, and tumor volumes were calculated using width (x) and length (y) (x^2y/2, where x<y). […]

A549 cells [3] = test: Tumor formation after inoculation of GDC0449 pre-treated A549 cells; format: in vivo, nude mice; conditions: A549 cells pre-treated with 40 μM GDC0449, 1 million cells subcutaneous, versus DMSO pre-treated
Description: Then, nude mice were inoculated (sub-cutaneous) with 1 million treated cells (still adherent to the culture flask after treatment with GDC0449). […] Then, nude mice were inoculated subcutaneously with 1 million treated cells (still adherent to the culture flask after treatment with GDC0449).

advanced-stage SCLC = conditions: cisplatin/etoposide with or without vismodegib, first line; cited from earlier work
[4] = system: most chemo-resistant NSCLC cell lines; conditions: previous study; cited from earlier work

CS(=O)(=O)c1ccc(C(=O)Nc2ccc(Cl)c(-c3ccccn3)c2)c(Cl)c1 [GDC0449]
Shh rate post-chemotherapy combined with GDC0449 compared to chemotherapy alone (Shh+ cells (A549); A549 cells, cisplatin or docetaxel plus GDC0449 40 μM): significant decrease; also recorded: decreased significantly | Shh+ cells in pre-inoculated A549 cells (Shh+ cells (A549); GDC0449 40 μM, day 3): 0% | Shh gene expression (qPCR) (Shh gene expression): dramatic decrease | cell proliferation and migration (A549 cells [1]): inhibition of cell proliferation and migration | Shh rate in A549 xenografts, sequential assay ([2]; cisplatin 10 mg/kg IV weekly, then GDC0449 20 mg/kg IP daily): significant reduction | Shh rate in A549 xenografts, combination treatment compared to chemotherapy alone ([2]; docetaxel 10 mg/kg twice a week plus GDC0449 20 mg/kg IP daily): significant reduction | tumor formation from pre-treated cells (A549 cells [3]): completely inhibited | response rate, PFS or OS (advanced-stage SCLC): No effect | effect with cisplatin in vitro [4]: synergistic effect
